{"source": "paper PMC10855908", "about": "(International Journal of Molecular Sciences, 2024)", "key": {"C. perfringens MLG4201 [1]": {"tested_on": "C. perfringens MLG4201", "assay_type": "cell-based, Clostridium perfringens"}, "C. perfringens MLG0618 [2]": {"tested_on": "C. perfringens MLG0618", "assay_type": "cell-based, Clostridium perfringens"}, "C. perfringens MLG7814 [3]": {"tested_on": "C. perfringens MLG7814", "assay_type": "cell-based, Clostridium perfringens"}, "C. perfringens MLG2203 [4]": {"tested_on": "C. perfringens MLG2203", "assay_type": "cell-based, Clostridium perfringens"}, "C. perfringens MLG1108 [5]": {"tested_on": "C. perfringens MLG1108", "assay_type": "cell-based, Clostridium perfringens"}, "C. perfringens MLG7309 [6]": {"tested_on": "C. perfringens MLG7309", "assay_type": "cell-based, Clostridium perfringens"}, "C. perfringens MLG2314 [7]": {"tested_on": "C. perfringens MLG2314", "assay_type": "cell-based, Clostridium perfringens"}, "C. perfringens MLG3406 [8]": {"tested_on": "C. perfringens MLG3406", "assay_type": "cell-based, Clostridium perfringens"}, "C. perfringens MLG5719 [9]": {"tested_on": "C. perfringens MLG5719", "assay_type": "cell-based, Clostridium perfringens"}, "C. perfringens MLG5806 [10]": {"tested_on": "C. perfringens MLG5806", "assay_type": "cell-based, Clostridium perfringens"}, "C. perfringens MLG4206 [11]": {"tested_on": "C. perfringens MLG4206", "assay_type": "cell-based, Clostridium perfringens"}, "C. perfringens MLG1108 [12]": {"tested_on": "C. perfringens MLG1108", "assay_type": "cell-based, Clostridium perfringens", "remark": "listed apart in the source"}, "C. perfringens MLG0418 [13]": {"tested_on": "C. perfringens MLG0418", "assay_type": "cell-based, Clostridium perfringens"}, "C. perfringens MLG2314 [14]": {"tested_on": "C. perfringens MLG2314", "assay_type": "cell-based, Clostridium perfringens", "remark": "listed apart in the source"}, "C. perfringens MLG1819 [15]": {"tested_on": "C. perfringens MLG1819", "assay_type": "cell-based, Clostridium perfringens"}, "C. perfringens MLG7814 [16]": {"tested_on": "C. perfringens MLG7814", "assay_type": "cell-based, Clostridium perfringens", "remark": "listed apart in the source"}, "C. perfringens MLG7009 [17]": {"tested_on": "C. perfringens MLG7009", "assay_type": "cell-based, Clostridium perfringens"}, "C. perfringens MLG6907 [18]": {"tested_on": "C. perfringens MLG6907", "assay_type": "cell-based, Clostridium perfringens"}, "C. perfringens MLG0712 [19]": {"tested_on": "C. perfringens MLG0712", "assay_type": "cell-based, Clostridium perfringens"}, "C. perfringens MLG7307 [20]": {"tested_on": "C. perfringens MLG7307", "assay_type": "cell-based, Clostridium perfringens"}, "C. perfringens MLG2203 [21]": {"tested_on": "C. perfringens MLG2203", "assay_type": "cell-based, Clostridium perfringens", "remark": "listed apart in the source"}, "C. perfringens MLG2919 [22]": {"tested_on": "C. perfringens MLG2919", "assay_type": "cell-based, Clostridium perfringens"}, "C. perfringens MLG1619 [23]": {"tested_on": "C. perfringens MLG1619", "assay_type": "cell-based, Clostridium perfringens"}, "C. perfringens MLG7009 [24]": {"tested_on": "C. perfringens MLG7009", "assay_type": "cell-based, Clostridium perfringens", "remark": "listed apart in the source"}, "C. perfringens MLG0418 [25]": {"tested_on": "C. perfringens MLG0418", "assay_type": "cell-based, Clostridium perfringens", "remark": "listed apart in the source"}, "C. perfringens MLG5719 [26]": {"tested_on": "C. perfringens MLG5719", "assay_type": "cell-based, Clostridium perfringens", "remark": "listed apart in the source"}, "C. perfringens MLG2919 [27]": {"tested_on": "C. perfringens MLG2919", "assay_type": "cell-based, Clostridium perfringens", "remark": "listed apart in the source"}, "C. perfringens MLG5806 [28]": {"tested_on": "C. perfringens MLG5806", "assay_type": "cell-based, Clostridium perfringens", "remark": "listed apart in the source"}, "C. perfringens MLG6907 [29]": {"tested_on": "C. perfringens MLG6907", "assay_type": "cell-based, Clostridium perfringens", "remark": "listed apart in the source"}, "C. perfringens MLG3111 [30]": {"tested_on": "C. perfringens MLG3111", "assay_type": "cell-based, Clostridium perfringens"}, "C. perfringens MLG1819 [31]": {"tested_on": "C. perfringens MLG1819", "assay_type": "cell-based, Clostridium perfringens", "remark": "listed apart in the source"}, "C. perfringens MLG3111 [32]": {"tested_on": "C. perfringens MLG3111", "assay_type": "cell-based, Clostridium perfringens", "remark": "listed apart in the source"}, "C. perfringens MLG0618 [33]": {"tested_on": "C. perfringens MLG0618", "assay_type": "cell-based, Clostridium perfringens", "remark": "listed apart in the source"}, "C. perfringens MLG4206 [34]": {"tested_on": "C. perfringens MLG4206", "assay_type": "cell-based, Clostridium perfringens", "remark": "listed apart in the source"}, "C. perfringens MLG7309 [35]": {"tested_on": "C. perfringens MLG7309", "assay_type": "cell-based, Clostridium perfringens", "remark": "listed apart in the source"}, "C. perfringens MLG1619 [36]": {"tested_on": "C. perfringens MLG1619", "assay_type": "cell-based, Clostridium perfringens", "remark": "listed apart in the source"}, "C. perfringens MLG7307 [37]": {"tested_on": "C. perfringens MLG7307", "assay_type": "cell-based, Clostridium perfringens", "remark": "listed apart in the source"}, "C. perfringens MLG3406 [38]": {"tested_on": "C. perfringens MLG3406", "assay_type": "cell-based, Clostridium perfringens", "remark": "listed apart in the source"}, "C. perfringens MLG4201 [39]": {"tested_on": "C. perfringens MLG4201", "assay_type": "cell-based, Clostridium perfringens", "remark": "listed apart in the source"}, "C. perfringens MLG0712 [40]": {"tested_on": "C. perfringens MLG0712", "assay_type": "cell-based, Clostridium perfringens", "remark": "listed apart in the source"}, "[41]": {"tested_on": "Campylobacter coli ATCC 33559", "conditions": "ATCC 33559, 24 h"}, "C. coli ATCC33559": {"tested_on": "C. coli ATCC33559", "conditions": "ATCC33559, 24 h, 200 μg/mL"}}, "note": "No end group written: not given here."}
{"substance": "Nisin (ITSISLCTPGCKTGALMGCNMKTATCHCSIHVSK; thioether (positions not given here); not fully specified (some residues, bridges); UniProt P13068 24-57, looked up)", "values": [{"measurement": "MIC", "setting": "C. perfringens MLG4201 [1]", "value": 0.78, "unit": "mg/L"}, {"measurement": "MIC", "setting": "C. perfringens MLG0618 [2]", "value": 0.39, "unit": "mg/L"}, {"measurement": "Inhibition halos", "setting": "C. perfringens MLG7814 [3]", "value": 23, "unit": "mm"}, {"measurement": "Inhibition halos", "setting": "C. perfringens MLG2203 [4]", "value": 24, "unit": "mm"}, {"measurement": "Inhibition halos", "setting": "C. perfringens MLG1108 [5]", "value": 16, "unit": "mm"}, {"measurement": "Inhibition halos", "setting": "C. perfringens MLG7309 [6]", "value": 17, "unit": "mm"}, {"measurement": "Inhibition halos", "setting": "C. perfringens MLG2314 [7]", "value": 20, "unit": "mm"}, {"measurement": "Inhibition halos", "setting": "C. perfringens MLG3406 [8]", "value": 19, "unit": "mm"}, {"measurement": "Inhibition halos", "setting": "C. perfringens MLG5719 [9]", "value": 19, "unit": "mm"}, {"measurement": "Inhibition halos", "setting": "C. perfringens MLG5806 [10]", "value": 19, "unit": "mm"}, {"measurement": "MIC", "setting": "C. perfringens MLG4206 [11]", "value": 1.56, "unit": "mg/L"}, {"measurement": "MIC", "setting": "C. perfringens MLG1108 [12]", "value": 0.78, "unit": "mg/L"}, {"measurement": "Inhibition halos", "setting": "C. perfringens MLG0418 [13]", "value": 23, "unit": "mm"}, {"measurement": "MIC", "setting": "C. perfringens MLG2314 [14]", "value": 1.56, "unit": "mg/L"}, {"measurement": "Inhibition halos", "setting": "C. perfringens MLG1819 [15]", "value": 19, "unit": "mm"}, {"measurement": "MIC", "setting": "C. perfringens MLG7814 [16]", "value": 3.12, "unit": "mg/L"}, {"measurement": "MIC", "setting": "C. perfringens MLG7009 [17]", "value": 1.56, "unit": "mg/L"}, {"measurement": "Inhibition halos", "setting": "C. perfringens MLG6907 [18]", "value": 23, "unit": "mm"}, {"measurement": "Inhibition halos", "setting": "C. perfringens MLG0712 [19]", "value": 17, "unit": "mm"}, {"measurement": "Inhibition halos", "setting": "C. perfringens MLG7307 [20]", "value": 20, "unit": "mm"}, {"measurement": "MIC", "setting": "C. perfringens MLG2203 [21]", "value": "<0.09", "unit": "mg/L"}, {"measurement": "Inhibition halos", "setting": "C. perfringens MLG2919 [22]", "value": 21, "unit": "mm"}, {"measurement": "MIC", "setting": "C. perfringens MLG1619 [23]", "value": 0.19, "unit": "mg/L"}, {"measurement": "Inhibition halos", "setting": "C. perfringens MLG7009 [24]", "value": 20, "unit": "mm"}, {"measurement": "MIC", "setting": "C. perfringens MLG0418 [25]", "value": 1.56, "unit": "mg/L"}, {"measurement": "MIC", "setting": "C. perfringens MLG5719 [26]", "value": 1.56, "unit": "mg/L"}, {"measurement": "MIC", "setting": "C. perfringens MLG2919 [27]", "value": 1.56, "unit": "mg/L"}, {"measurement": "MIC", "setting": "C. perfringens MLG5806 [28]", "value": 1.56, "unit": "mg/L"}, {"measurement": "MIC", "setting": "C. perfringens MLG6907 [29]", "value": 1.56, "unit": "mg/L"}, {"measurement": "Inhibition halos", "setting": "C. perfringens MLG3111 [30]", "value": 27, "unit": "mm"}, {"measurement": "MIC", "setting": "C. perfringens MLG1819 [31]", "value": 0.39, "unit": "mg/L"}, {"measurement": "MIC", "setting": "C. perfringens MLG3111 [32]", "value": 0.39, "unit": "mg/L"}, {"measurement": "Inhibition halos", "setting": "C. perfringens MLG0618 [33]", "value": 14, "unit": "mm"}, {"measurement": "Inhibition halos", "setting": "C. perfringens MLG4206 [34]", "value": 25, "unit": "mm"}, {"measurement": "MIC", "setting": "C. perfringens MLG7309 [35]", "value": 0.78, "unit": "mg/L"}, {"measurement": "Inhibition halos", "setting": "C. perfringens MLG1619 [36]", "value": 20, "unit": "mm"}, {"measurement": "MIC", "setting": "C. perfringens MLG7307 [37]", "value": 0.78, "unit": "mg/L"}, {"measurement": "MIC", "setting": "C. perfringens MLG3406 [38]", "value": 3.12, "unit": "mg/L"}, {"measurement": "Inhibition halos", "setting": "C. perfringens MLG4201 [39]", "value": 18, "unit": "mm"}, {"measurement": "MIC", "setting": "C. perfringens MLG0712 [40]", "value": 0.39, "unit": "mg/L"}]}
{"substance": "MGAIAKLVAKFGWPIVKKYYKQIMQFIGEGWAINKIIEWIKKHI [Enterocin L50A]", "values": [{"measurement": "MIC", "setting": "[41]", "value": 25, "unit": "mg/L"}, {"measurement": "Inhibition halos", "setting": "C. coli ATCC33559", "value": 10, "unit": "mm"}]}
